From PubChem BioAssay (NCI)
Several values for one entry are separate records, joined by “and”; a condition that tells them apart may be missing. Identical values can stand only once.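 Interpolation was linear, between the two tested concentrations surrounding the appropriate level; five concentrations were tested over 48 hours in 96-well plates. The concentration for 50% growth inhibition is given as GI50. TGI: total growth inhibition.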

Tests used:
Experiment in all cases: DTP human tumour cell line panel, 48 h
CCRF-CEM leukemia = test system: CCRF-CEM leukemia
COLO 205 colon = test system: COLO 205 colon
MOLT-4 leukemia = test system: MOLT-4 leukemia
OVCAR-4 ovarian = test system: OVCAR-4 ovarian
PC-3 prostate = test system: PC-3 prostate
RPMI-8226 leukemia = test system: RPMI-8226 leukemia
RXF 393 renal = test system: RXF 393 renal
SK-MEL-28 melanoma = test system: SK-MEL-28 melanoma
SN12C renal = test system: SN12C renal
UACC-257 melanoma = test system: UACC-257 melanoma

| Structure (SMILES) | GI50 (CCRF-CEM leukemia) [µM] | TGI (CCRF-CEM leukemia) | GI50 (COLO 205 colon) [µM] | TGI (COLO 205 colon) | GI50 (MOLT-4 leukemia) [µM] | TGI (MOLT-4 leukemia) | TGI (OVCAR-4 ovarian) | TGI (PC-3 prostate) [µM] | GI50 (RPMI-8226 leukemia) [µM] | TGI (RPMI-8226 leukemia) | GI50 (RXF 393 renal) [µM] | TGI (RXF 393 renal) | GI50 (SK-MEL-28 melanoma) [µM] | TGI (SK-MEL-28 melanoma) | GI50 (SN12C renal) [µM] | TGI (SN12C renal) | TGI (UACC-257 melanoma) [µM] | GI50 (OVCAR-4 ovarian) [µM] | GI50 (PC-3 prostate) [µM] | GI50 (UACC-257 melanoma) [µM] |
| --- | --- | --- | --- | --- | --- | --- | --- | --- | --- | --- | --- | --- | --- | --- | --- | --- | --- | --- | --- | --- |
| CC1=C2C(=CO[C@H](C)[C@H]2C)C(=O)C(C(=O)O)=C1O | 27.7 | > 88.7 µM and 45.9 µM | 22.1 | 77.3 µM and 45.8 µM | 34.1 | 40 µM and > 93.6 µM | > 80.5 µM and 87.5 µM | > 85.3 | 25.4 | 63.3 µM and 58.3 µM | 21.9 | 35.8 µM and 48.4 µM | 23.9 | 93.5 µM and 54.9 µM | 9.07 | 54.8 µM and 26.2 µM | > 87.8 |  |  |  |
| CCOC(=O)c1cc2c([N+](=O)[O-])c(N)ccc2s1 |  | > 100 µM |  | > 100 µM |  | > 100 µM | > 100 µM | > 100 |  | > 100 µM |  | > 100 µM |  | > 100 µM |  | > 100 µM | > 100 |  |  |  |
| COc1cnc2c(c1)C(=O)c1c-2n(CCCNCCO)c(=O)c2ccncc12 | 0.626 | 12.5 µM | 0.82 | 9.05 µM | 0.405 | 10.2 µM | 7.46 µM | 11.1 | 1.85 | 7.58 µM | 1.2 | 3.48 µM | 2.08 | 5.79 µM | 1.08 | 13.6 µM | 9.02 | 1.38 | 1.44 | 2.18 |
| COc1ccc(C(SC2C(O)C(CO)OC2n2ccc(=O)[nH]c2=O)(c2ccccc2)c2ccc(OC)cc2)cc1 (stereo not given) |  | > 100 µM |  | 34.9 µM |  | > 100 µM | 64.9 µM | 33 |  | > 100 µM |  | 32.4 µM |  | 53.9 µM |  | 32.4 µM | 33.5 |  |  |  |
| CC(C)=CCNc1nc(Cl)nc2nc[nH]c12 |  | > 100 µM |  | > 100 µM |  | > 100 µM | > 100 µM | > 100 |  | > 100 µM |  | 62 µM |  | > 100 µM |  | > 100 µM | > 100 |  |  |  |
| COC(=O)C1C(=O)N(C)C(=O)N2CCCC12 (stereo not given) |  | > 100 µM |  | > 100 µM |  | > 100 µM | > 100 µM | > 100 |  | > 100 µM |  | > 100 µM |  | > 100 µM |  |  | > 100 |  |  |  |
| O=C1c2c(O)cccc2-c2nn(CCNCCO)c3ccc(NCCNCCO)c1c23 |  | 0.0631 µM |  | 1.67 µM |  | 0.086 µM | 2.97 µM | 2.16 |  | 7.65 µM |  | 1.37 µM |  | 1.97 µM |  | 0.454 µM | 5.69 |  |  |  |
| CC1(C)CC(=O)C2(CC(CSc3ccccc3)C(CS(=O)(=O)c3ccccc3)C2)C(=O)C1 (stereo not given) |  | > 100 µM |  | > 100 µM |  | > 100 µM | > 100 µM | > 100 |  | > 100 µM |  | > 100 µM |  | > 100 µM |  | > 100 µM | > 100 |  |  |  |
| CC(C)/C(Cl)=N\OC(NC(=O)P(=O)(c1ccccc1)c1ccccc1)(C(F)(F)F)C(F)(F)F |  | 22.5 µM |  | 26.5 µM |  | 39.6 µM | 25.1 µM | 34.4 |  | 37.5 µM |  | 34 µM |  | 28.2 µM |  | 26.6 µM | 42.2 |  |  |  |
| CC(Oc1ccccc1Cl)C(=O)NN1C(=O)CSC1c1ccccc1 (stereo not given) |  | > 100 µM |  | > 100 µM |  | > 100 µM | > 100 µM | > 100 |  | > 100 µM |  | > 100 µM |  | > 100 µM |  | > 100 µM | > 100 |  |  |  |
| Cc1c(C(=O)OCc2ccccc2)[n+](=O)c2cc(Cl)c(Cl)cc2n1[O-] |  | 39.4 µM |  | 32.2 µM |  | 21.5 µM | 26.9 µM | 55 |  | 21.2 µM |  | 36 µM |  | 64.8 µM |  | 45.3 µM | 29.6 |  |  |  |
| NCC(O)CSCc1ccc(Cl)cc1 (stereo not given) |  | > 100 µM |  | > 100 µM |  | > 100 µM | > 100 µM | > 100 |  | > 100 µM |  | > 100 µM |  | > 100 µM |  | > 100 µM | > 100 |  |  |  |
| COc1ccc(Nc2ccc3ccccc3c2-c2c(O)ccc3ccccc23)cc1 |  | 46.8 µM |  | 47 µM |  | 34.3 µM | 41.9 µM | 29.3 |  | 27.4 µM |  | 49.8 µM |  | 31.7 µM |  | 35.1 µM | 58.9 |  |  |  |
| O=C(N/N=C/C=C/c1ccccc1)c1ccccc1Nc1ccccc1C(=O)N/N=C/C=C/c1ccccc1 |  | > 100 µM |  | > 100 µM |  | > 100 µM | > 100 µM | > 100 |  | > 100 µM |  | > 100 µM |  | > 100 µM |  | > 100 µM | > 100 |  |  |  |
| Nc1nc(Cl)cc(NC23CC4CC(CC(C4)C2)C3)n1 |  | > 100 µM |  | > 100 µM |  | > 100 µM | > 100 µM | > 100 |  | > 100 µM |  | > 100 µM |  | > 100 µM |  | > 100 µM | > 100 |  |  |  |
| O=c1oc(C(C(F)(F)F)C(F)(F)F)nc2ccccc12 |  | > 100 µM |  | > 100 µM |  | > 100 µM | > 100 µM | > 100 |  | > 100 µM |  | > 100 µM |  | > 100 µM |  |  | > 100 |  |  |  |
